Values quoted from earlier work as cited in patent US6740517B2, “Incubation method for obtaining solid culture of Zang Zhi, solid culture obtained therefrom, processed products and use thereof” (priority 2001, dated 2004).

Columns and labels:
[1] = test system: mouse with the acute hepatitis induced by CCl4
[2] = test system: lymphoma cells of a p-388 mouse

| Molecule | GPT in the blood [1] | inhibition to agglutination of blood platelets (blood platelets) | inhibition to the lymphoma cells of a p-388 mouse [2] |
| --- | --- | --- | --- |
| 3,11-dioxo-8,23-dien-26-oic acid | reduce GPT |  |  |
| C=C(CC[C@@H](C)[C@H]1CC[C@H]2C3=C(C(=O)C[C@]12C)[C@@]1(C)CCC(=O)[C@@H](C)[C@@H]1CC3=O)C(C)C(=O)O (stereo partly drawn) [Zhankuic acid A] |  | conspicuous inhibition | conspicuous inhibition |
